Data on two compounds can be found in patent US20040048837A1, “Method for treatment of renal disease” (priority 2002, published 2004).

Each structure is given as a SMILES string.

The test system of series [1] is patients undergoing chronic renal dialysis. To be noted: use of paricalcitol; cited from earlier work.
The subject of series [2] is uremic rats. The settings on record: cited from earlier work.
Series [3] concerns patients undergoing chronic hemodialysis. Put plainly: Historical cohort study of mortality and survival in chronic hemodialysis patients on intravenous paricalcitol or calcitriol. It is filed as in vivo, human. The settings on record: for Mortality rate (deaths/person-years): 36-month follow-up after initiation of injectable vitamin D; for Number of deaths: 36-month follow-up, paricalcitol 18,430 person-years, calcitriol 22,057 person-years; for HR (mortality): reference calcitriol; for Crude survival at one year / Crude survival at three years / Crude survival at two years: Kaplan-Meier; for Mortality risk according to quintiles of base line PTH / Mortality risk according to quintiles of base line serum calcium: model adjusted for all covariates. As for the experimental part: An historical cohort study was conducted of patients undergoing chronic hemodialysis in Fresenius Medical Care (FMC) dialysis facilities in the United States. Patients who initiated treatment with either paricalcitol or calcitriol beginning Jan. 1, 1999 or after, and who remained exclusively on that intravenous vitamin D formulation until the conclusion of the follow-up period on Dec. 31, 2001, were included in this study. Patients were excluded if they received any form of intravenous vitamin D prior to Jan. 1, 1999 or if they switched from one injectable vitamin D formulation to another during the study period. Patients treated exclusively with other intravenous vitamin D formulations were not studied because of small sample sizes in those groups.
The FMC data system is an Oracle database populated by the individual clinical data systems employed in each individual FMC dialysis facility. The database contains demographic, laboratory, hospitalization, and mortality information as well as detailed records of the treatments administered during each hemodialysis run since January 1995. All data were collected prospectively as part of routine patient care in over 1000 dialysis facilities throughout the United States. For this study, no additional data were retrospectively abstracted from medical records.
Upon a patient's admission to an FMC facility, demographic information including age, gender, race, date of first dialysis, cause of end stage renal disease, and diabetes status were entered into the system. Subsequently, hemodialysis prescription, laboratory tests, and injectable medications were recorded daily. Centralized labs utilized by all FMC facilities performed laboratory tests using standardized assays. Laboratory test results were automatically downloaded from the centralized laboratory to the FMC data system, minimizing the possibility of data entry errors.
Records of all medicines administered during hemodialysis included date of administration, medication name, dose, and route of administration. This information was collected and uploaded into a central database on a daily basis, and underwent routine quality assessment and control measures because of their link with billing systems. This permitted restriction of the analysis to those who initiated and remained on a single vitamin D formulation during the study period. Whenever a patient missed a hemodialysis treatment, a temporary absence or permanent discharge must be recorded in the system by the facility staff in order to complete the daily reconciliation of prescribed verses administered treatments. Therefore, all patient deaths, including date and cause of death (ICD-9 coded), were recorded in the database by the individual facilities as one type of permanent discharge. In addition, all hospitalizations are recorded as temporary absences, even if no dialysis treatment was missed. Data entered by the individual facilities underwent continuous quality improvement assessment to ensure their accuracy and completeness.
The base line for each individual patient was defined as within a three-month period before starting on paricalcitol or calcitriol. Base line laboratory values were obtained by averaging all values in the three months prior to initiating vitamin D therapy. Quintiles of base line serum calcium and phosphate levels were determined by aggregating values of all patients in the three year time period. Because of known lot-to-lot drifts in parathyroid hormone (PTH) assays, serum levels of PTH were categorized by yearly quintiles, and comparative quintiles across years were combined for the analysis.
Patient “vintage” was determined as the number of days from the initiation of chronic hemodialysis to the first day paricalcitol or calcitriol was administered. This covariate was examined both as a continuous and a categorical variable. […]

The test system of series [4] is patients. The settings on record: compared with injectable calcitriol (Calcijex); cited from earlier work.
Series [5] relates to cells. To be noted: in vitro; compared with paricalcitol; independent of serum calcium, phosphate, PTH; cited from earlier work.

With `C[C@H](/C=C/[C@H](C)C(C)(C)O)[C@H]1CC[C@H]2/C(=C/C=C3C[C@@H](O)C[C@H](O)C3)CCC[C@]12C` [paricalcitol, 19-Nor=−1, 25-(OH)2D2], in series [1], the Adverse effects reported entry is “nausea, vomiting, metallic tastes, chills, fever, sepsis, palpitations, dry mouth, gastrointestinal bleeding, edema, light-headedness and pneumonia”. For the same compound, in series [2], the Hypercalcemia or hyperphosphatemia entry is “without producing significant hypercalcemia or hyperphosphatemia” and the PTH secretion result is on record as “suppressed PTH secretion”. For the same compound, in series [3], the “Mortality rate (deaths/person-years)” value turned out to be 18.54%, the Number of deaths was found to be 3417 deaths, the “Crude survival at one year” value came to 82.6% and the “Crude survival at three years” value was 59.3%. In series [3], the “Crude survival at two years” value was determined as 68.6%, the “Mortality risk according to quintiles of base line PTH” value is reported as “significantly lower risk of mortality at all levels of PTH” and the “Mortality risk according to quintiles of base line serum calcium” value is “did not appear to have an increased risk of mortality”. The “HR (mortality), restricted population, adjusted” value in series [3] (Caucasian diabetic patients, ages 60-70 years, vintage <100 days, arteriovenous prosthetic graft, 95% CI 0.21-0.82) is on record as 0.42. Besides, the “HR (mortality), restricted population, unadjusted” value in series [3] (Caucasian diabetic patients, ages 60-70 years, vintage <100 days, arteriovenous prosthetic graft, 95% CI 0.33-0.85) was 0.53. Moreover, the “HR (mortality)” value in series [3] (Cox model Case Mix, Study Entry Period, SMR, Dialysis Access, Base-Line Laboratory Values, N 25,471) came to 0.73. In addition, the “HR (mortality)” value in series [3] (Cox model Case Mix, Study Entry Period, SMR, Dialysis Access, N 50,572) is recorded as 0.70. Further, in series [3] (Cox model Case Mix, Study Entry Period, SMR, N 50,572), the “HR (mortality)” value amounted to 0.69. For the same compound, the “HR (mortality)” value in series [3] (Cox model Case-Mix and Study Entry Period, N 50,572) was determined as 0.70. The “HR (mortality)” value in series [3] (Cox model Case-Mix, N 50,572) was determined as 0.61. Moreover, in series [3] (Cox model Unadjusted, N 50,916), the “HR (mortality)” value was determined as 0.58. For the same compound, in series [3] (after progressive adjustments, vs calcitriol), the “Apparent risk (survival) benefit associated with paricalcitol treatment” value is recorded as around 27%. Moreover, the “Mortality risk within each quintile of serum phosphorus” value in series [3] (compared with the calcitriol group, adjusted model) was “comparatively lower”. Moreover, in series [3] (final model n=25,471, Ref = calcitriol), the “Hazard ratio in the final model (Table 3)” value came to 0.733. For the same compound, the “Risk reduction for each cause of mortality by ICD-9 codes” value in series [3] (infection, neoplasm, cardiovascular, cerebrovascular, other, vs calcitriol, p<0.01) is recorded as “greater than 50%”. Besides, the “Mortality Rate Ratio” value in series [3] (paricalcitol vs calcitriol, 95% CI 0.58-0.63, p<0.01) is 0.60. In addition, the “Survival advantage over calcitriol in stratum” value in series [3] (patients less than 40 years of age at start, event rate 9%) is listed as “did not demonstrate a significant survival advantage”. Besides, the “Incidence of elevated Ca and/or Ca X P levels” value in series [4] is given as “statistically significantly greater”.

`C=C1/C(=C\C=C2/CCC[C@]3(C)[C@@H]([C@H](C)CCCC(C)(C)O)CC[C@@H]23)C[C@@H](O)C[C@@H]1O` [calcitriol, 1,25 dihydroxycholecalciferol]: in series [3], the “Mortality rate (deaths/person-years)” value worked out at 30.85%, the Number of deaths was found to be 6805 deaths, the “Crude survival at one year” value was 73.7% and the “Crude survival at three years” value stood at 44.1%. Moreover, in series [3], the “Crude survival at two years” value is listed as 56.0%, the “Mortality risk according to quintiles of base line PTH” value is listed as “increased with each successive quintile” and the “Mortality risk according to quintiles of base line serum calcium” value was “increased with each successive quintile”. Besides, in series [5], the “Cell sensitization to injury” value was “sensitizes cells to ATP-depletion and iron-mediated injury”.
